US20050123633A1, “Biological activity-promoting compositions containing soybean germ-origin isoflavone aglycon” (priority 2002, published 2005)

How the values were obtained:
Type in all cases: in vivo, rat
OVX female SD rats [1] = assay: Body fat determination (weight of removed fat); details: at necropsy after 28 days, isoflavone aglycones 20 mg per kg body weight, 17 β-estradiol 1 μg per animal per day, mean ± SD
Source text: (§1) 1) Female SD rats (seven weeks) were procured, and were preliminarily kept for one week. The healthy female SD rats to be used as subjects (eight weeks) were raised in groups with uniform body weight. Rats other than those in the Sham group were ovarectomized (OVX). The Sham group was only laparotomized. After preliminarily keeping for one week after the OVX procedure, the rats were allowed free intake of high-fat feed having the composition shown in Table 2 for a period of 28 days starting on the day following preliminary keeping.
(§2) The rats were also allowed free intake of well water (3 ppm chlorine added). In addition, the environment of the animal facility had constant temperature and humidity of 23±2° C. and 55±10%. The atmosphere conditioning method involved ventilation (15 cycles/h), and the light time was from 8 am to 8 pm. The keeping apparatuses were stainless steel metabolic cages.
(§3) Upon completion of administration on day 28, 24-hour fasting was performed, and the rats were necropsied under ether anesthetization in order to collect blood from the abdominal aorta. Regarding serum cholesterol, measurement of total serum cholesterol, HDL cholesterol, LDL cholesterol and cholesterol ester ratio were carried out, and blood neutral fat (TG), blood free fatty acid (FFA) and leptin were measured using enzymatic methods. In addition, the uterus weight per 100 g body weight was measured for the necropsied females rats. Also, body fat determination was made by measuring the weight of removed posterior abdominal wall fat, mesenteric fat, perirenal fat and periovarian fat per 100 g of body weight. The thymus weights for the necropsied female rats were measured based on the weight per 100 g of body weight.
(§4) The results of measurement for each group were expressed as mean values±standard deviations for each of the measured parameters, and significant differences were determined using Student's t-test. Evaluation was made using the two-sided test, where significance levels were taken as 5 and 1%.

OVX female SD rats [2] = assay: Blood free fatty acid (FFA) measurement; details: after 28 days administration and 24-hour fasting, isoflavone aglycones 20 mg per kg body weight, 17 β-estradiol 1 μg per animal per day, mean ± SD
Source text: as §1, §2, §3, §4

OVX female SD rats [3] = assay: Blood neutral fat (TG) measurement; details: after 28 days administration and 24-hour fasting, isoflavone aglycones 20 mg per kg body weight, 17 β-estradiol 1 μg per animal per day, mean ± SD
Source text: as §1, §2, §3, §4

OVX female SD rats [4] = assay: Urine NO2/NO3 measurement (24-hour accumulated urine); details: 17 β-estradiol 1 μg per animal per day, mean ± SD
Source text: as §1, §2, §3, §4

OVX female SD rats [5] = assay: Thymus weight measurement; details: for Change in Thymus Weight: at necropsy after 28 days, isoflavone aglycones 20 mg per kg body weight, 17 β-estradiol 1 μg per animal per day, mean ± SD
Source text: as §1, §2, §3, §4

OVX female SD rats [6] = assay: Body weight measurement in OVX rats on high-fat feed; details: 17 β-estradiol 1 μg per animal per day, mean ± SD
Source text: as §1, §2
The body weights of all rats were measured once on days 0, 7, 14, 21 and 28.
(§5) Evaluation was made using the two-sided test, where significance levels were taken as 5 and 1%.

OVX female SD rats [7] = assay: Leptin level measurement; details: after 28 days administration and 24-hour fasting, isoflavone aglycones 20 mg per kg body weight, 17 β-estradiol 1 μg per animal per day, mean ± SD
Source text: as §1, §2, §3, §4

OVX female SD rats [8] = assay: Serum cholesterol measurement; details: after 28 days administration and 24-hour fasting, isoflavone aglycones 20 mg per kg body weight, 17 β-estradiol 1 μg per animal per day, mean ± SD; for Cholesterol ester (%): cholesterol ester ratio
Source text: as §1, §2, §3, §5

OVX female SD rats [9] = assay: Overall evaluation of biological activity promotion over all measured parameters; details: at an administered amount of 1/4000 relative to isoflavone aglycones
Source text: as §1
Consequently, results were obtained that caused concern over side effects when administered at high dosages.

[10] = day 0, isoflavone aglycones 20 mg per kg body weight
[11] = day 7, isoflavone aglycones 20 mg per kg body weight
[12] = day 14, isoflavone aglycones 20 mg per kg body weight
[13] = day 21, isoflavone aglycones 20 mg per kg body weight
[14] = day 28, isoflavone aglycones 20 mg per kg body weight
[15] = day 0, isoflavone aglycones 20 mg per kg body weight in feed
[16] = day 7, isoflavone aglycones 20 mg per kg body weight in feed
[17] = day 14, isoflavone aglycones 20 mg per kg body weight in feed
[18] = day 21, isoflavone aglycones 20 mg per kg body weight in feed
[19] = day 28, isoflavone aglycones 20 mg per kg body weight in feed

Row | Structure (SMILES) | Body Fat: Mesenteric fat (OVX female SD rats [1]) | Body Fat: Periovarian fat (OVX female SD rats [1]) | Body Fat: Perirenal fat (OVX female SD rats [1]) | Body Fat: posterior abdominal wall fat (OVX female SD rats [1]) | Change in FFA (blood free fatty acid) (OVX female SD rats [2]) | Change in TG (blood neutral fat) (OVX female SD rats [3]) | Change in NO2/NO3 (urinary) (OVX female SD rats [4]; [10]) | Change in NO2/NO3 (urinary) (OVX female SD rats [4]; [11]) | Change in NO2/NO3 (urinary) (OVX female SD rats [4]; [12]) | Change in NO2/NO3 (urinary) (OVX female SD rats [4]; [13]) | Change in NO2/NO3 (urinary) (OVX female SD rats [4]; [14]) | Change in Thymus Weight (OVX female SD rats [5]) | Change in Body Weight (OVX female SD rats [6]; [15]) | Change in Body Weight (OVX female SD rats [6]; [16]) | Change in Body Weight (OVX female SD rats [6]; [17]) | Change in Body Weight (OVX female SD rats [6]; [18]) | Change in Body Weight (OVX female SD rats [6]; [19]) | Change in Leptin (OVX female SD rats [7]) | Serum LDL cholesterol (OVX female SD rats [8]) | Serum Total cholesterol (OVX female SD rats [8]) | other results
1 | O=c1c(-c2ccc(O)cc2)coc2cc(O)cc(O)c12 [genistein] | 2.6 ± 0.14 g/100 g; body weight | 3.0 ± 0.26 g/100 g; body weight | 3.7 ± 0.17 g/100 g; body weight | 2.8 ± 0.25 g/100 g; body weight | 400.0 ± 19.01 mg/dL | 116.9 ± 9.90 mg/dL | 6.1 ± 0.34 µmol | 6.4 ± 0.39 µmol | 6.3 ± 0.56 µmol | 6.2 ± 0.40 µmol | 6.4 ± 0.4 µmol | 0.110 ± 0.02 g/100 g; body weight | 197.3 ± 10.18 g | 216.9 ± 8.53 g | 231.9 ± 9.77 g | 249.4 ± 9.81 g | 266.8 ± 8.6 g | 1.9 ± 0.25 ng/mL | 40.6 ± 1.76 mg/dL | 85.8 ± 2.53 mg/dL | –
2 | O=c1c(-c2ccc(O)cc2)coc2cc(O)ccc12 [daidzein] | 2.8 ± 0.18 g/100 g; body weight | 3.1 ± 0.17 g/100 g; body weight | 3.5 ± 0.20 g/100 g; body weight | 2.6 ± 0.23 g/100 g; body weight | 379.2 ± 24.45 mg/dL | 104.8 ± 16.71 mg/dL | 6.0 ± 0.53 µmol | 6.4 ± 0.54 µmol | 6.4 ± 0.43 µmol | 6.6 ± 0.40 µmol | 6.0 ± 0.40 µmol | 0.130 ± 0.02 g/100 g; body weight | 191.0 ± 7.31 g | 216.1 ± 6.86 g | 230.6 ± 6.58 g | 245.4 ± 7.07 g | 257.4 ± 7.71 g | 1.7 ± 0.12 ng/mL | 36.3 ± 3.45 mg/dL | 81.8 ± 2.57 mg/dL | thymus weight relative to the comparative group 1 (Sham) and the test group 1 (OVX), in words (OVX female SD rats [5]; 28 days): increase in weight; Serum HDL cholesterol (OVX female SD rats [8]): 42.6 ± 2.25 mg/dL; Cholesterol ester (%) (OVX female SD rats [8]): 70.1 ± 3.01%
3 | C[C@]12CC[C@@H]3c4ccc(O)cc4CC[C@H]3[C@@H]1CC[C@@H]2O [estradiol, 17 β-estradiol] | 2.5 ± 0.19 g/100 g; body weight | 2.8 ± 0.27 g/100 g; body weight | 3.2 ± 0.22 g/100 g; body weight | 1.9 ± 0.10 g/100 g; body weight | 362.8 ± 24.41 mg/dL | 105.1 ± 5.37 mg/dL | 6.1 ± 0.29 µmol | 7.0 ± 0.60 µmol | 7.8 ± 0.59 µmol | 9.0 ± 0.76 µmol | 9.4 ± 0.39 µmol | 0.112 ± 0.01 g/100 g; body weight | 192.5 ± 7.12 g | – | – | – | – | 0.7 ± 0.28 ng/mL | 38.2 ± 1.74 mg/dL | 72.1 ± 3.86 mg/dL | stimulatory (agonistic) action with respect to biological activity, in words (OVX female SD rats [9]): high; Serum HDL cholesterol (OVX female SD rats [8]): 35.9 ± 3.38 mg/dL; Cholesterol ester (%) (OVX female SD rats [8]): 70.7 ± 2.80%
